Our source for the melting point values is patent US20050137242A1, “Betamimetics having a long-lasting activity, processes for preparing them, and their use as medicaments” (Boehringer Ingelheim Pharma GmbH & Co. KG, priority 2000, published 2005).

Where a name gives a salt, the structure may show the parent alone.

With `CCCCOc1ccc(CC(C)(C)NCC(O)c2ccc(O)c3c2OCC(=O)N3)cc1` (stereo not shown) (as salt: methanesulfonate) [Example 2, 1-[2H-5-hydroxy-3-oxo-4H-1,4-benzoxazin-8-yl]-2-[3-(4-n-butyloxyphenyl)-2-methyl-2-propylamino]ethanol], the melting point fell in the range of 189 to 190 °C. On to `COc1ccc(CNc2cc(C(O)CNC(C)(C)CCn3cnc4ccccc43)ccc2O)cc1` (stereo not shown) (as salt: acetate) [Example 3, 1-[3-(4-methoxybenzylamino)-4-hydroxyphenyl]-2-[4-(1-benzimidazolyl)-2-methyl-2-butylamino]ethanol], for which the melting point was 154 to 155 °C. Consider `COc1ccc(CC(C)(C)NCC(O)c2ccc(O)c3c2OCC(=O)N3)cc1` (stereo not shown) (as salt: hydrochloride) [Example 4, 1-[2H-5-hydroxy-3-oxo-4H-1,4-benzoxazin-8-yl]-2-[3-(4-methoxyphenyl)-2-methyl-2-propylamino]ethanol], for which the melting point lay in the range of 202 to 205 °C. As to `COc1ccc(-c2ncn(CCC(C)(C)NCC(O)c3ccc(O)c4c3OCC(=O)N4)n2)cc1` (stereo not shown) (as salt: hydrochloride) [Example 5, 1-[2H-5-hydroxy-3-oxo-4H-1,4-benzoxazin-8-yl]-2-{4-[3-(4-methoxyphenyl)-1,2,4-triazol-3-yl]-2-methyl-2-butylamino}ethanol], the melting point fell in the range of 175 to 179 °C.

Usually melting point stands for the temperature, or range, at which the solid turns liquid.
